Test results taken from patent US20240247080A1, “GLP1/GIP/NPY2 RECEPTOR TRIPLE AGONISTS” (Boehringer Ingelheim International GmbH, priority 2022, published 2024).
Like-named read-outs stand apart in the source and are kept apart here. Starred links: 1 amine or outer side, 2 acyl side, 3 side chain; linkers in the order of their positions; H or OH if unused. Non-standard residues stand in square brackets, D forms with d. Groups on a side chain read outwards from the residue. No end group written: not given here. *: point of attachment. C20 diacid = O=C(O)CCCCCCCCCCCCCCCCCCC(=O)*; C18 diacid = O=C(O)CCCCCCCCCCCCCCCCC(=O)*; γGlu = O=C(O)[C@H](CCC(=O)[*:2])N[*:1]; εLys = N[C@@H](CCCCN[*:1])C(=O)[*:2]; hArg = N=C(N)NCCCC[C@H](N)C(=O)O; β3hQ = NC(=O)CC[C@H](N)CC(=O)O; AEEA = NCCOCCOCC(=O)O; Aib = CC(C)(N)C(=O)O

Key:
Assay type in all cases: cell-based
Conditions in all cases: CreLuc reporter gene assay
hGLP1R = target: T1, hGLP1R (Homo sapiens, UniProt P43220); experiment: hGLP1R CreLuc reporter gene assay in 0.5% and 100% plasma
T1 construct: expressed in transfected cells; host or cells: HEK-293 cells carrying a CRE-luciferase reporter gene
How it was run: (§1)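 Agonist EC50s came from 8-concentration curves over four decades, fitted by non-linear variable-slope regression of CRE-driven luciferase luminescence. Cells were exposed 4 h at 37 °C, in buffer with 0.5% human plasma or in 100% plasma; GIPR was expressed in CHO cells, GLP-1R and NPY2R in HEK cells.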

hGIPR = target: T2, hGIPR (Homo sapiens, UniProt P48546); experiment: hGIPR CreLuc reporter gene assay in 0.5% and 100% plasma
T2 construct: expressed in transfected cells; host or cells: CHO cells carrying a CRE-luciferase reporter gene
T2 sequence (P48546 22-466): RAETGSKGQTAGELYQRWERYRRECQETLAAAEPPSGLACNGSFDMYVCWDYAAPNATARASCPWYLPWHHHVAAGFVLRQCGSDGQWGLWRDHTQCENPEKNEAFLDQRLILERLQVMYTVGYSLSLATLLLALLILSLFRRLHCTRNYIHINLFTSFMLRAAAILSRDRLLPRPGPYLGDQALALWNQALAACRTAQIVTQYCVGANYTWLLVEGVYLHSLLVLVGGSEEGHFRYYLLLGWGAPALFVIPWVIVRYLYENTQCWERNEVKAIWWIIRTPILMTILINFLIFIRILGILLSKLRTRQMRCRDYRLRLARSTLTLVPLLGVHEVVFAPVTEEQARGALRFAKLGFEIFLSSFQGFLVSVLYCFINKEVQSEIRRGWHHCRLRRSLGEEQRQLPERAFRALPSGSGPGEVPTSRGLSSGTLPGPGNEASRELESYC
How it was run: as §1

hNPY2R = target: T3, hNPY2R (Homo sapiens, UniProt P49146); experiment: hNPY2R CreLuc reporter gene assay in 0.5% and 100% plasma
T3 construct: expressed in transfected cells; host or cells: HEK-293 cells carrying a CRE-luciferase reporter gene
T3 sequence (P49146 1-381): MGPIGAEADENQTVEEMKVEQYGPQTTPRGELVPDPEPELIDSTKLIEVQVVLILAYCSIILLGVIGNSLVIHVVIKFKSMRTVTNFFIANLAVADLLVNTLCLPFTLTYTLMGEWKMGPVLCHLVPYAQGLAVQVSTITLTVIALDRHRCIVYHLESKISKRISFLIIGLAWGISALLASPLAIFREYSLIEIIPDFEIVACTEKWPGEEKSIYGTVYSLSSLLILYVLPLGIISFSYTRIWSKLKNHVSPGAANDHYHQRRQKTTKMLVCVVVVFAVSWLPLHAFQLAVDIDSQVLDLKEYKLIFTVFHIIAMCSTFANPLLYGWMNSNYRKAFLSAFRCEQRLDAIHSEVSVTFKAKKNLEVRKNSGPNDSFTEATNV
How it was run: as §1

[1] = 0.5% human plasma, read-out: hGLP1R 0.5% hP
[2] = 0.5% human plasma, read-out: hGIPR 0.5% hP
[3] = 0.5% human plasma, read-out: hNPY2R 0.5% hP
[4] = 100% human plasma, read-out: hGIPR 100% hP
[5] = 100% human plasma, read-out: hNPY2R 100% hP
[6] = 100% human plasma, read-out: hGLP1R 100% hP

T1 sequence (P43220 24-463): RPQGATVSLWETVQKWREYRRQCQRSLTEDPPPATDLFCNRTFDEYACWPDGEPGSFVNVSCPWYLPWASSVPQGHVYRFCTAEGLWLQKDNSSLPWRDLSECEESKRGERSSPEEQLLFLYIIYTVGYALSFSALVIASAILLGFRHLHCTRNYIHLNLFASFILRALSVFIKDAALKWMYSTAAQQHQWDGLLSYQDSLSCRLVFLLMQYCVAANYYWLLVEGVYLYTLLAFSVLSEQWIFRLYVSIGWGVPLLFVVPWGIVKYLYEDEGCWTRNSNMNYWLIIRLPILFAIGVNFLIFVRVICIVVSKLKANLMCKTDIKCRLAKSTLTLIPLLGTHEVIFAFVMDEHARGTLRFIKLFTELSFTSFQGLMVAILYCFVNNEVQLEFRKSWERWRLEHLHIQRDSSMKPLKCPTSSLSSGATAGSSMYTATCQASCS

Row | Compound | EC50 (hGLP1R; [1]) [nM] | EC50 (hGIPR; [2]) [nM] | EC50 (hNPY2R; [3]) [nM] | EC50 (hGIPR; [4]) [nM] | EC50 (hNPY2R; [5]) [nM] | EC50 (hGLP1R; [6]) [nM]
1 | H-Y[Aib]EGTFTSDYSI[Aib]LEKQAQ[Aib]AFVQWLIK([γGlu-γGlu-γGlu-γGlu-γGlu-C20 diacid])GGPESPASLRHYYNWLTRQRY-NH2 [Compound 11, Y-Aib-E-G-T-F-T-S-D-Y-S-I-Aib-L-E-K-Q-A-Q-Aib-A-F-V-Q-W-L-I-K(1,3)-GGPESPASLRHYYNWLTRQRY-NH2.C20DA-gGlu-gGlu-gGlu-gGlu-gGlu(1,2)] | 0.11 | 0.17 | 10.3 | – | – | –
2 | H-Y[Aib]EGTFTSDYSI[Aib]LEKQAQ[Aib]AFVEWLIK([εLys-γGlu-γGlu-γGlu-γGlu-γGlu-γGlu-C20 diacid])GGPSSGASLRHYYNWLTR[β3hQ]RY-NH2 [Compound 208, Y-Aib-E-G-T-F-T-S-D-Y-S-I-Aib-L-E-K-Q-A-Q-Aib-A-F-V-E-W-L-I-K(1,3)-G-G-P-S-S-G-A-S-L-R-H-Y-Y-N-W-L-T-R-bHGln-R-Y-NH2.C20DA-gGlu-gGlu-gGlu-gGlu-gGlu-gGlu-eLys(1,2)] | 0.11 | 0.07 | > 100 | 0.81 | > 1000 | –
3 | CC[C@H](C)[C@H](NC(=O)[C@H](CC(C)C)NC(=O)[C@H](Cc1c[nH]c2ccccc12)NC(=O)[C@H](CCC(=O)O)NC(=O)[C@@H](NC(=O)[C@H](Cc1ccccc1)NC(=O)[C@H](C)NC(=O)C(C)(C)NC(=O)[C@H](CCC(N)=O)NC(=O)[C@H](C)NC(=O)[C@H](CCC(N)=O)NC(=O)[C@H](CCCCN)NC(=O)[C@H](CCC(=O)O)NC(=O)[C@H](CC(C)C)NC(=O)C(C)(C)NC(=O)[C@@H](NC(=O)[C@H](CO)NC(=O)[C@H](Cc1ccc(O)cc1)NC(=O)[C@H](CC(=O)O)NC(=O)[C@H](CO)NC(=O)[C@@H](NC(=O)[C@H](Cc1ccccc1)NC(=O)[C@@H](NC(=O)CNC(=O)[C@H](CCC(=O)O)NC(=O)C(C)(C)NC(=O)[C@@H](N)Cc1ccc(O)cc1)[C@@H](C)O)[C@@H](C)O)[C@@H](C)CC)C(C)C)C(=O)N[C@@H](CCCCNC(=O)[C@@H](N)CCCCNC(=O)CC[C@H](NC(=O)CC[C@H](NC(=O)CC[C@H](NC(=O)CC[C@H](NC(=O)CC[C@H](NC(=O)CC[C@H](NC(=O)CCCCCCCCCCCCCCCCCCC(=O)O)C(=O)O)C(=O)O)C(=O)O)C(=O)O)C(=O)O)C(=O)O)C(=O)NCC(=O)NCC(=O)N1CCC[C@H]1C(=O)N[C@@H](CO)C(=O)N[C@@H](CO)C(=O)NCC(=O)N[C@@H](C)C(=O)N[C@@H](CO)C(=O)N[C@@H](CC(C)C)C(=O)N[C@@H](CCCNC(=N)N)C(=O)N[C@H](Cc1c[nH]cn1)C(=O)N[C@@H](Cc1ccc(O)cc1)C(=O)N[C@@H](Cc1ccc(O)cc1)C(=O)N[C@@H](CC(N)=O)C(=O)N[C@@H](Cc1c[nH]c2ccccc12)C(=O)N[C@@H](CC(C)C)C(=O)N[C@H](C(=O)N[C@H](CCCNC(=N)N)C(=O)N[C@@H](CCC(N)=O)C(=O)N[C@@H](CCCNC(=N)N)C(=O)N[C@H](Cc1ccc(O)cc1)C(N)=O)[C@@H](C)O [Compound 21, Y-Aib-E-G-T-F-T-S-D-Y-S-I-Aib-L-E-K-Q-A-Q-Aib-A-F-V-E-W-L-I-K(1,3)-G-G-P-S-S-G-A-S-L-R-DHis-Y-Y-N-W-L-T-DArg-Q-R-DTyr-NH2.C20DA-gGlu-gGlu-gGlu-gGlu-gGlu-gGlu-eLys(1,2)] | 0.11 | 0.14 | > 99.9 | 0.87 | > 999 | 1.66
4 | H-Y[Aib]EGTFTSDYSI[Aib]LEKQAQ[Aib]AFVEWLIK([AEEA-AEEA-γGlu-γGlu-γGlu-γGlu-C18 diacid])GGPSSPASLRHYYNWLTRQRY-NH2 [Compound 158, Y-Aib-E-G-T-F-T-S-D-Y-S-I-Aib-L-E-K-Q-A-Q-Aib-A-F-V-E-W-L-I-K(1,3)-GGPSSPASLRHYYNWLTRQRY-NH2.C18DA-gGlu-gGlu-gGlu-gGlu-OEG-OEG(1,2)] | 0.09 | 0.11 | 15.8 | 0.84 | 39.9 | –
5 | Y[Aib]EGTFTSDYSI[Aib]LEKQAQ[Aib]AFVQWLIK([AEEA-AEEA-γGlu-γGlu-γGlu-γGlu-C20 diacid])GGPEEPASLRHYYNWLTRQRY-NH2 [Compound 77, Y-Aib-E-G-T-F-T-S-D-Y-S-I-Aib-L-E-K-Q-A-Q-Aib-A-F-V-Q-W-L-I-K(1,3)-GGPEEPASLRHYYNWLTRQRY-NH2.C20DA-gGlu-gGlu-gGlu-gGlu-OEG-OEG(1,2)] | 0.24 | 0.32 | 13.7 | – | 46.3 | –
6 | CC[C@H](C)[C@H](NC(=O)[C@H](CC(C)C)NC(=O)[C@H](Cc1c[nH]c2ccccc12)NC(=O)[C@H](CCC(N)=O)NC(=O)[C@@H](NC(=O)[C@H](Cc1ccccc1)NC(=O)[C@H](C)NC(=O)C(C)(C)NC(=O)[C@H](CCC(N)=O)NC(=O)[C@H](C)NC(=O)[C@H](CCC(N)=O)NC(=O)[C@H](CCCCN)NC(=O)[C@H](CCC(=O)O)NC(=O)[C@H](CC(C)C)NC(=O)C(C)(C)NC(=O)[C@@H](NC(=O)[C@H](CO)NC(=O)[C@H](Cc1ccc(O)cc1)NC(=O)[C@H](CC(=O)O)NC(=O)[C@H](CO)NC(=O)[C@@H](NC(=O)[C@H](Cc1ccccc1)NC(=O)[C@@H](NC(=O)CNC(=O)[C@H](CCC(=O)O)NC(=O)C(C)(C)NC(=O)[C@@H](N)Cc1ccc(O)cc1)[C@@H](C)O)[C@@H](C)O)[C@@H](C)CC)C(C)C)C(=O)N[C@@H](CCCCNC(=O)[C@H](CCC(=O)O)NC(=O)[C@H](CCC(=O)O)NC(=O)[C@H](CCC(=O)O)NC(=O)[C@H](CCC(=O)O)NC(=O)[C@H](CCC(=O)O)NC(=O)CCCCCCCCCCCCCCCCC(=O)O)C(=O)NCC(=O)NCC(=O)N1CCC[C@H]1C(=O)N[C@@H](CO)C(=O)N[C@@H](CCC(=O)O)C(=O)NCC(=O)N[C@@H](C)C(=O)N[C@@H](CO)C(=O)N[C@@H](CC(C)C)C(=O)N[C@@H](CCCNC(=N)N)C(=O)N[C@@H](Cc1c[nH]cn1)C(=O)N[C@@H](Cc1ccc(O)cc1)C(=O)N[C@@H](Cc1ccc(O)cc1)C(=O)N[C@@H](CC(N)=O)C(=O)N[C@@H](Cc1c[nH]c2ccccc12)C(=O)N[C@@H](CC(C)C)C(=O)N[C@H](C(=O)N[C@@H](CCCNC(=N)N)C(=O)N[C@@H](CCC(N)=O)C(=O)N[C@@H](CCCNC(=N)N)C(=O)N[C@@H](Cc1ccc(O)cc1)C(N)=O)[C@@H](C)O [Compound 257, Y-Aib-E-G-T-F-T-S-D-Y-S-I-Aib-L-E-K-Q-A-Q-Aib-A-F-V-Q-W-L-I-K(1,3)-GGPSEGASLRHYYNWLTRQRY-NH2.C18DA-E-E-E-E-E(1,2)] | 0.08 | 0.14 | 16.9 | – | – | 2.48
7 | H-Y[Aib]EGTFTSDYSI[Aib]LEKQAQ[Aib]AFVEWLIK([εLys-γGlu-γGlu-γGlu-γGlu-γGlu-γGlu-C20 diacid])GGPSSGASLRHYYNWLT[hArg]QR[dY]-NH2 [Compound 71, Y-Aib-E-G-T-F-T-S-D-Y-S-I-Aib-L-E-K-Q-A-Q-Aib-A-F-V-E-W-L-I-K(1,3)-G-G-P-S-S-G-A-S-L-R-H-Y-Y-N-W-L-T-hArg-Q-R-DTyr-NH2.C20DA-gGlu-gGlu-gGlu-gGlu-gGlu-gGlu-eLys(1,2)] | 0.14 | 0.13 | > 100 | 0.64 | > 1000 | 1.13
8 | H-Y[Aib]EGTFTSDYSI[Aib]LEKQAQ[Aib]AFVQWLIK([γGlu-γGlu-γGlu-γGlu-γGlu-C18 diacid])GGPESGASLRHYYNWLTRQRY-NH2 [Compound 53, Y-Aib-E-G-T-F-T-S-D-Y-S-I-Aib-L-E-K-Q-A-Q-Aib-A-F-V-Q-W-L-I-K(1,3)-GGPESGASLRHYYNWLTRQRY-NH2.C18DA-gGlu-gGlu-gGlu-gGlu-gGlu(1,2)] | 0.09 | 0.13 | 13.2 | 1.38 | 50.6 | –
9 | H-Y[Aib]EGTFTSDYSI[Aib]LEKQAQ[Aib]AFVEWLIK([εLys-γGlu-γGlu-γGlu-γGlu-γGlu-γGlu-C20 diacid])GGPSSPASLRHYYNWLTRQRY-NH2 [Compound 95, Y-Aib-E-G-T-F-T-S-D-Y-S-I-Aib-L-E-K-Q-A-Q-Aib-A-F-V-E-W-L-I-K(1,3)-GGPSSPASLRHYYNWLTRQRY-NH2.C20DA-gGlu-gGlu-gGlu-gGlu-gGlu-gGlu-eLys(1,2)] | 0.13 | 0.13 | 20.6 | 0.75 | – | –
